Source: PubChem BioAssay AID743353 (Broad Institute, 2014)
The source made the active and inactive calls.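 The calls were made as follows: active = compound that lowers cell viability with a fitted AC50 at most twice its highest valid tested dose; inconclusive = flat curve with 30 to 70% loss, or poor fit; inactive = the rest.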

What was measured:
[1] = HEK293 cell cytotoxicity, dose response, cytotoxicity control, luminescence, dry powder, set 13 (AID 743353); details: HEK293T viability, ATP luminescence CellTiter-Glo, 72 h; at 26 µM (top of the series)
[2] = test system: HEK293T viability, ATP luminescence CellTiter-Glo, 72 h; experiment: as above

CC(=O)c1ccc(N2CCN(C(=O)c3ccc4c(c3)OCO4)CC2)cc1
activity change, negative = cytotoxicity [1]: -2.01% (inactive)

O=C(c1ccc2c(c1)OCO2)N1CCN(c2ccc(S(=O)(=O)C(F)(F)F)cc2)CC1
AC50 [2]: > 52 µM (inactive)

CC(=O)c1ccc(N2CCN(C(=O)Nc3ccc4c(c3)OCO4)CC2)cc1
activity change, negative = cytotoxicity [1]: -0.537% (inactive)

CC(=O)c1ccc(N2CCN(S(=O)(=O)c3ccc4c(c3)OCO4)CC2)cc1
activity change, negative = cytotoxicity [1]: -12.5% (inactive)

CC(=O)c1ccc(N2CCN(C(=O)c3cc4c(cn3)OCO4)CC2)cc1
activity change, negative = cytotoxicity [1]: -11.9% (inactive)

CN(C)S(=O)(=O)c1ccc(N2CCN(C(=O)c3ccc4c(c3)OCO4)CC2)cc1
activity change, negative = cytotoxicity [1]: -16.1% (inactive)

CC(=O)c1ccc(N2CC3CC2CN3C(=O)c2ccc3c(c2)OCO3)cc1 (stereo unspecified)
activity change, negative = cytotoxicity [1]: 4.9% (inactive)

CC(=O)c1ccc(N2CCN(C(=O)c3ccc4ocnc4c3)CC2)cc1
activity change, negative = cytotoxicity [1]: -8.67% (inactive)

CS(=O)(=O)c1ccc(N2CCN(C(=O)c3ccc4c(c3)OCO4)CC2)cc1
activity change, negative = cytotoxicity [1]: 3.29% (inactive)

O=C(c1ccc2c(c1)OCO2)N1CCN(c2ccc(S(=O)(=O)C(F)F)cc2)CC1
activity change, negative = cytotoxicity [1]: -6.54% (inactive)

N#Cc1ccc(N2CCN(C(=O)c3ccc4c(c3)OCO4)CC2)cc1
activity change, negative = cytotoxicity [1]: -2.51% (inactive)

CC(=O)c1ccc(N2CCN(C(=O)c3cc(Cl)c4c(c3)OCO4)CC2)cc1
activity change, negative = cytotoxicity [1]: -6.52% (inactive)

CC(=O)c1ccc(N2CCCN(C(=O)c3ccc4c(c3)OCO4)CC2)cc1
activity change, negative = cytotoxicity [1]: 0.038% (inactive)

CC(=O)c1ccc(N2CCN(C(=O)c3ccc4c(c3C)OCO4)CC2)cc1
activity change, negative = cytotoxicity [1]: -17% (inactive)

CC(=O)c1ccc(N2CCN(C(=O)c3ccc4snnc4c3)CC2)cc1
activity change, negative = cytotoxicity [1]: -9.09% (inactive)

COc1cc(C(=O)N2CCN(c3ccc(C(C)=O)cc3)CC2)cc2c1OCO2
activity change, negative = cytotoxicity [1]: -13.3% (inactive)

CC(=O)c1ccc(N2CCN(C(=O)c3ccc4c(c3)OC(F)(F)O4)CC2)cc1
activity change, negative = cytotoxicity [1]: -14.8% (inactive)

CC(=O)c1ccc(N2CCN(C(=O)c3cccc4c3OCO4)CC2)cc1
activity change, negative = cytotoxicity [1]: 0.216% (inactive)

O=C(c1ccc2c(c1)OCO2)N1CCN(c2ccc(C(F)(F)F)cc2)CC1
activity change, negative = cytotoxicity [1]: -8.83% (inactive)

CC(=O)c1ccc(N2CCN(C(=O)c3cc4c(cc3C)OCO4)CC2)cc1
AC50 [2]: > 52 µM (inactive)

O=C(c1ccc2c(c1)OCO2)N1CCN(c2ccc(OC(F)(F)F)cc2)CC1
activity change, negative = cytotoxicity [1]: -10.3% (inactive)

COc1cc2c(cc1C(=O)N1CCN(c3ccc(C(C)=O)cc3)CC1)OCO2
activity change, negative = cytotoxicity [1]: -3.95% (inactive)

CC(=O)c1ccc(N2CCN(C(=O)c3ccc(Cl)c(Cl)c3)CC2)cc1
activity change, negative = cytotoxicity [1]: -9.71% (inactive)

COc1ccc(C(=O)N2CCN(c3ccc(C(C)=O)cc3)CC2)cc1OC
activity change, negative = cytotoxicity [1]: -1.09% (inactive)

CC(=O)c1ccc(N2CCN(C(=O)c3cc4c(cc3Cl)OCO4)CC2)cc1
activity change, negative = cytotoxicity [1]: -7.51% (inactive)

CC(=O)c1ccc(N2CCN(C(=O)c3ccc4c(c3)OC(C)(C)O4)CC2)cc1
AC50 [2]: > 52 µM (inactive)
